Source: the supplement of paper PMC10307832

What was measured:
Assay in all cases: relative viability (nuclei count vs DMSO), 5 days (fraction); higher = more cells survive
[1] = tested on: 201T
Procedure, shortened: (§1)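 Cells from lung cancer lines were seeded into 1536-well plates and, one day later, dosed by pin tool. Treatments were either a single drug or a fixed dose of an anchor drug with five library-drug doses (not always all listed) in √10 steps. After 5 days, nuclei were stained in a one-step fixation (final 0.05% Triton X-100, 1% formaldehyde, 1 ug/ml Hoechst) and counted on 4× images, and relative viability is the treated-to-vehicle nuclei ratio, as the median of duplicate plates.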

[2] = tested on: BEN
Procedure, shortened: as §1

[3] = tested on: CAL-12T
Procedure, shortened: as §1

[4] = tested on: HCC-827
Procedure, shortened: as §1

[5] = tested on: LCLC-97TM1
Procedure, shortened: as §1

[6] = tested on: LXF-289
Procedure, shortened: as §1

[7] = tested on: NCI-H1395
Procedure, shortened: as §1

[8] = tested on: NCI-H1437
Procedure, shortened: as §1

[9] = tested on: NCI-H1650
Procedure, shortened: as §1

[10] = tested on: NCI-H1792
Procedure, shortened: as §1

[11] = tested on: NCI-H1793
Procedure, shortened: as §1

[12] = tested on: NCI-H1944
Procedure, shortened: as §1

[13] = tested on: NCI-H2087
Procedure, shortened: as §1

[14] = tested on: NCI-H2228
Procedure, shortened: as §1

[15] = tested on: NCI-H2405
Procedure, shortened: as §1

[16] = tested on: NCI-H3122
Procedure, shortened: as §1

[17] = tested on: NCI-H322M
Procedure, shortened: as §1

[18] = tested on: NCI-H647
Procedure, shortened: as §1

[19] = tested on: NCI-H727
Procedure, shortened: as §1

[20] = tested on: RERF-LC-KJ
Procedure, shortened: as §1

[21] = tested on: SK-LU-1
Procedure, shortened: as §1

Structure (SMILES): COc1cc2nccc(Oc3ccc(NC(=O)Nc4cc(C)on4)c(Cl)c3)c2cc1OC [Tivozanib] + CS(=O)(=O)CCNCc1ccc(-c2ccc3ncnc(Nc4ccc(OCc5cccc(F)c5)c(Cl)c4)c3c2)o1 [Lapatinib] (partner 2 µM)
- relative viability ([1]; first compound 0.005 µM): 1.04
- relative viability ([1]; first compound 0.01581 µM): 1.06
- relative viability ([1]; first compound 0.05 µM): 1.01
- relative viability ([1]; first compound 0.1581 µM): 0.988
- relative viability ([1]; first compound 0.5 µM): 1.07
- relative viability ([2]; first compound 0.005 µM): 0.476
- relative viability ([2]; first compound 0.01581 µM): 0.839
- relative viability ([2]; first compound 0.05 µM): 0.722
- relative viability ([2]; first compound 0.5 µM): 0.633
- relative viability ([3]; first compound 0.005 µM): 0.563
- relative viability ([3]; first compound 0.01581 µM): 0.752
- relative viability ([3]; first compound 0.05 µM): 0.666
- relative viability ([3]; first compound 0.5 µM): 0.784
- relative viability ([4]; first compound 0.005 µM): 0.244
- relative viability ([4]; first compound 0.01581 µM): 0.181
- relative viability ([4]; first compound 0.05 µM): 0.204
- relative viability ([4]; first compound 0.1581 µM): 0.233
- relative viability ([4]; first compound 0.5 µM): 0.842
- relative viability ([5]; first compound 0.005 µM): 0.948
- relative viability ([5]; first compound 0.01581 µM): 1.23
- relative viability ([5]; first compound 0.1581 µM): 0.807
- relative viability ([5]; first compound 0.5 µM): 0.821
- relative viability ([6]; first compound 0.005 µM): 0.888
- relative viability ([6]; first compound 0.01581 µM): 0.886
- relative viability ([6]; first compound 0.05 µM): 0.902
- relative viability ([6]; first compound 0.1581 µM): 0.946
- relative viability ([6]; first compound 0.5 µM): 0.905
- relative viability ([7]; first compound 0.005 µM): 0.939
- relative viability ([7]; first compound 0.01581 µM): 1.11
- relative viability ([7]; first compound 0.05 µM): 1.02
- relative viability ([7]; first compound 0.1581 µM): 0.863
- relative viability ([7]; first compound 0.5 µM): 0.778
- relative viability ([8]; first compound 0.005 µM): 0.771
- relative viability ([8]; first compound 0.01581 µM): 0.8
- relative viability ([8]; first compound 0.05 µM): 0.777
- relative viability ([8]; first compound 0.1581 µM): 0.824
- relative viability ([8]; first compound 0.5 µM): 0.708
- relative viability ([9]; first compound 0.005 µM): 0.707
- relative viability ([9]; first compound 0.01581 µM): 0.845
- relative viability ([9]; first compound 0.05 µM): 0.836
- relative viability ([9]; first compound 0.1581 µM): 0.717
- relative viability ([9]; first compound 0.5 µM): 0.721
- relative viability ([10]; first compound 0.005 µM): 0.901
- relative viability ([10]; first compound 0.01581 µM): 0.925
- relative viability ([10]; first compound 0.05 µM): 0.922
- relative viability ([10]; first compound 0.1581 µM): 0.841
- relative viability ([10]; first compound 0.5 µM): 1.01
- relative viability ([11]; first compound 0.005 µM): 0.619
- relative viability ([11]; first compound 0.01581 µM): 0.478
- relative viability ([11]; first compound 0.05 µM): 0.696
- relative viability ([11]; first compound 0.5 µM): 0.867
- relative viability ([12]; first compound 0.005 µM): 0.826
- relative viability ([12]; first compound 0.01581 µM): 0.888
- relative viability ([12]; first compound 0.05 µM): 0.758
- relative viability ([12]; first compound 0.1581 µM): 0.666
- relative viability ([12]; first compound 0.5 µM): 0.841
- relative viability ([13]; first compound 0.005 µM): 1
- relative viability ([13]; first compound 0.01581 µM): 0.885
- relative viability ([13]; first compound 0.05 µM): 0.942
- relative viability ([13]; first compound 0.1581 µM): 1.2
- relative viability ([13]; first compound 0.5 µM): 0.859
- relative viability ([14]; first compound 0.005 µM): 1.07
- relative viability ([14]; first compound 0.01581 µM): 1.1
- relative viability ([14]; first compound 0.05 µM): 1.07
- relative viability ([14]; first compound 0.1581 µM): 1.03
- relative viability ([14]; first compound 0.5 µM): 0.948
- relative viability ([15]; first compound 0.005 µM): 0.972
- relative viability ([15]; first compound 0.01581 µM): 1.28
- relative viability ([15]; first compound 0.05 µM): 1.1
- relative viability ([15]; first compound 0.1581 µM): 1.01
- relative viability ([15]; first compound 0.5 µM): 0.572
- relative viability ([16]; first compound 0.005 µM): 0.972
- relative viability ([16]; first compound 0.01581 µM): 0.979
- relative viability ([16]; first compound 0.05 µM): 0.989
- relative viability ([16]; first compound 0.1581 µM): 1.16
- relative viability ([16]; first compound 0.5 µM): 1.03
- relative viability ([17]; first compound 0.005 µM): 0.574
- relative viability ([17]; first compound 0.01581 µM): 0.649
- relative viability ([17]; first compound 0.05 µM): 0.615
- relative viability ([17]; first compound 0.1581 µM): 0.525
- relative viability ([17]; first compound 0.5 µM): 0.65
- relative viability ([18]; first compound 0.005 µM): 0.935
- relative viability ([18]; first compound 0.01581 µM): 0.971
- relative viability ([18]; first compound 0.05 µM): 0.98
- relative viability ([18]; first compound 0.1581 µM): 0.866
- relative viability ([18]; first compound 0.5 µM): 0.966
- relative viability ([19]; first compound 0.005 µM): 0.676
- relative viability ([19]; first compound 0.01581 µM): 0.901
- relative viability ([19]; first compound 0.05 µM): 0.957
- relative viability ([19]; first compound 0.5 µM): 0.787
- relative viability ([20]; first compound 0.005 µM): 0.816
- relative viability ([20]; first compound 0.01581 µM): 0.843
- relative viability ([20]; first compound 0.05 µM): 0.902
- relative viability ([20]; first compound 0.1581 µM): 0.819
- relative viability ([20]; first compound 0.5 µM): 0.834
- relative viability ([21]; first compound 0.005 µM): 0.827
- relative viability ([21]; first compound 0.01581 µM): 0.809
- relative viability ([21]; first compound 0.05 µM): 0.895
- relative viability ([21]; first compound 0.1581 µM): 0.704
- relative viability ([21]; first compound 0.5 µM): 0.738
